# Assay results from ChEMBL document CHEMBL1201862, “PubChem BioAssay data set” (2004).
#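 How tested: cells in 96-well plates exposed to compound for 48 hours at five concentrations. GI50 marks 50% less growth.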 Calls of active or inactive are those of the source. Cut-off read from the data, not from the text of the source: active = GI50 up to about 1.1 µM and inactive = higher.
# Key:
# Test in all cases: NCI tumour cell line growth inhibition, 48 h
# ACHN = system: ACHN
# BT-549 = system: BT-549
# CAKI-1 = system: CAKI-1
# HCT-15 = system: HCT-15
# Hs-578T = system: Hs-578T
# K562 = system: K562
# KM12 = system: KM12
# LOX IMVI = system: LOX IMVI
# MDA-MB-435 = system: MDA-MB-435
# NCI-H226 = system: NCI-H226
# NCI-H460 = system: NCI-H460
# OVCAR-5 = system: OVCAR-5
# RXF 393 = system: RXF 393
# SF-268 = system: SF-268
# SK-OV-3 = system: SK-OV-3
# SW-620 = system: SW-620
# UACC-257 = system: UACC-257
# NCI-H522 = system: NCI-H522
# SK-MEL-2 = system: SK-MEL-2
SMILES,GI50 (ACHN),GI50 (BT-549),GI50 (CAKI-1),GI50 (HCT-15),GI50 (Hs-578T),GI50 (K562),GI50 (KM12),GI50 (LOX IMVI),GI50 (MDA-MB-435),GI50 (NCI-H226),GI50 (NCI-H460),GI50 (OVCAR-5),GI50 (RXF 393),GI50 (SF-268),GI50 (SK-OV-3),GI50 (SW-620),GI50 (UACC-257),GI50 (NCI-H522),GI50 (SK-MEL-2)
Clc1c(C(Cl)(Cl)Cl)nsc1N1CCCCC1,29.8 µM (inactive),18.3 µM (inactive),19.4 µM (inactive),26.5 µM,31.3 µM (inactive),19.1 µM (inactive),20.7 µM (inactive),16.2 µM (inactive),20.9 µM (inactive),15.1 µM (inactive),33.6 µM (inactive),33.7 µM (inactive),16.8 µM (inactive),34 µM (inactive),27.9 µM (inactive),32.4 µM (inactive),23.3 µM (inactive),,
O=C(Cn1c2ccc(Br)cc2c2nc3ccccc3nc21)NNC(=O)NC1CCCCC1,> 100 µM (inactive),> 100 µM (inactive),30.3 µM (inactive),,24.4 µM (inactive),47.1 µM (inactive),37.4 µM (inactive),41.4 µM (inactive),32.7 µM (inactive),,47.8 µM (inactive),52.8 µM (inactive),78.2 µM (inactive),45.5 µM (inactive),50.7 µM (inactive),33 µM (inactive),98.9 µM (inactive),72.8 µM (inactive),> 100 µM (inactive)
COC(=O)C(Cc1c[nH]c2ccccc12)NP(=O)(O)OCC1OC(n2cc(F)c(=O)[nH]c2=O)CC1O (configuration not stated),6.89 µM (inactive),> 100 µM (inactive),,> 100 µM,> 100 µM (inactive),> 100 µM (inactive),> 96.2 µM (inactive),18.2 µM (inactive),> 100 µM (inactive),> 100 µM (inactive),1.14 µM (inactive),> 100 µM (inactive),> 100 µM (inactive),4.94 µM (inactive),> 92.5 µM (inactive),> 100 µM (inactive),> 100 µM (inactive),> 100 µM (inactive),> 100 µM (inactive)
CCOC(=O)c1cnc(-n2[nH]c3c(c2=O)CCCC3)[nH]c1=O,50.2 µM (inactive),47.1 µM (inactive),48.1 µM (inactive),44.1 µM,> 100 µM (inactive),20.7 µM (inactive),67.5 µM (inactive),,47.8 µM (inactive),47.1 µM (inactive),45.5 µM (inactive),82.4 µM (inactive),,55.8 µM (inactive),80.5 µM (inactive),35.2 µM (inactive),32.4 µM (inactive),52.4 µM (inactive),42.6 µM (inactive)
CCn1c(CCl)nc2c1C(=O)c1ccccc1C2=O,3.72 µM (inactive),2.18 µM (inactive),,1.66 µM,2.29 µM (inactive),2.36 µM (inactive),1.73 µM (inactive),,1.69 µM (inactive),0.225 µM (active),1.98 µM (inactive),1.84 µM (inactive),1.85 µM (inactive),2.61 µM (inactive),0.515 µM (active),1.33 µM (inactive),1.67 µM (inactive),0.292 µM (active),
O=[N+]([O-])c1ccc(-c2cn(-c3ccc(Cl)cc3)cn2)cc1,31.6 µM (inactive),59.2 µM (inactive),> 100 µM (inactive),> 100 µM,41.6 µM (inactive),> 100 µM (inactive),> 100 µM (inactive),56.4 µM (inactive),> 100 µM (inactive),48.5 µM (inactive),18.5 µM (inactive),> 100 µM (inactive),,14.2 µM (inactive),11.6 µM (inactive),> 100 µM (inactive),> 100 µM (inactive),3.76 µM (inactive),> 100 µM (inactive)
COc1cc2c(c(OC)c1)[C@H](C)N(Cc1ccccc1)C(C)C2 (some centres not stated),31.3 µM (inactive),61.8 µM (inactive),64.9 µM (inactive),28.6 µM,25.5 µM (inactive),21.9 µM (inactive),30.2 µM (inactive),30.1 µM (inactive),16.3 µM (inactive),23.7 µM (inactive),11 µM (inactive),,,80.2 µM (inactive),> 100 µM (inactive),28.9 µM (inactive),67.8 µM (inactive),> 100 µM (inactive),
CCCCCCCC1C(C)c2c([nH]c3ccccc23)C2C(=O)N(c3ccc(OC)cc3)C(=O)C21 (configuration not stated),2.66 µM (inactive),2.11 µM (inactive),3.26 µM (inactive),> 7.76 µM,2 µM (inactive),3.11 µM (inactive),6.34 µM (inactive),,3.33 µM (inactive),3.1 µM (inactive),1.87 µM (inactive),> 10 µM (inactive),2.79 µM (inactive),3.72 µM (inactive),4.68 µM (inactive),3.02 µM (inactive),2.64 µM (inactive),4.48 µM (inactive),> 6.59 µM (inactive)
c1ccc2c(C3CCN(CCN4CCOCC4)C3)c[nH]c2c1 (configuration not stated),> 100 µM (inactive),> 100 µM (inactive),> 100 µM (inactive),> 100 µM,> 100 µM (inactive),> 100 µM (inactive),> 100 µM (inactive),> 100 µM (inactive),> 100 µM (inactive),,> 100 µM (inactive),> 100 µM (inactive),> 100 µM (inactive),> 100 µM (inactive),> 100 µM (inactive),> 100 µM (inactive),> 100 µM (inactive),> 100 µM (inactive),> 100 µM (inactive)
COC(=O)[C@@]1(Cc2ccc(O)cc2)C[C@@H]2Cc3ccccc3N2N1,> 100 µM (inactive),45 µM (inactive),> 100 µM (inactive),81.8 µM,68.4 µM (inactive),,> 100 µM (inactive),> 100 µM (inactive),> 100 µM (inactive),90.8 µM (inactive),,> 100 µM (inactive),,> 100 µM (inactive),> 100 µM (inactive),> 100 µM (inactive),23.3 µM (inactive),58.2 µM (inactive),25.4 µM (inactive)
COc1ccc2oc(=O)c3c(c2c1C)OC(C)(C)C=C3,> 100 µM (inactive),> 100 µM (inactive),> 100 µM (inactive),> 100 µM,> 100 µM (inactive),> 100 µM (inactive),> 100 µM (inactive),> 100 µM (inactive),> 100 µM (inactive),> 100 µM (inactive),> 100 µM (inactive),> 100 µM (inactive),,23.2 µM (inactive),> 100 µM (inactive),> 100 µM (inactive),> 100 µM (inactive),> 100 µM (inactive),> 100 µM (inactive)
O=C(NCCCCNCCCNC(=O)C(F)(F)F)C(F)(F)F,> 100 µM (inactive),> 100 µM (inactive),> 100 µM (inactive),> 100 µM,> 100 µM (inactive),> 100 µM (inactive),> 100 µM (inactive),,> 100 µM (inactive),> 100 µM (inactive),> 100 µM (inactive),> 100 µM (inactive),> 100 µM (inactive),> 100 µM (inactive),26.8 µM (inactive),> 100 µM (inactive),> 100 µM (inactive),> 100 µM (inactive),> 100 µM (inactive)
